In the NIST ThermoML archive (doi:10.1016/j.fluid.2014.01.038):

How the values were obtained:
[1] = cn = amount concentration of the nth substance listed, in mol/dm3; conditions: 101 kPa, Liquid, Alternating current cell with electrodes
[2] = mn = molality of the nth substance listed, in mol/kg; conditions: 288.15 K, 101 kPa, Liquid, Pycnometric method

CCCCCCCCCCCCn1cc[n+](C)c1.[Br-] [1-dodecyl-3-methylimidazolium bromide] + O
electrical conductivity [S/m], [1]
Conditions	283.15 K	288.15 K	293.15 K	298.15 K	303.15 K	308.15 K
c1 = 0.0006629	0.00432	0.00491	0.0055	0.00613	0.00676	0.00742
c1 = 0.001064	0.00695	0.00789	0.00894	0.00994	0.011	0.0121
c1 = 0.001497	0.0098	0.0111	0.0125	0.0139	0.0154	0.0169
c1 = 0.00184	0.012	0.0136	0.0153	0.017	0.0188	0.0201
c1 = 0.002146	0.014	0.0158	0.0178	0.0198	0.0216	0.0237
c1 = 0.00249	0.0158	0.0178	0.0201	0.0222	0.0247	0.0273
c1 = 0.002909	0.0168	0.019	0.0212	0.0239	0.027	0.0304
c1 = 0.003361	0.0175	0.0198	0.0222	0.0251	0.0284	0.0321
c1 = 0.003884	0.0183	0.0204	0.0233	0.0264	0.0299	0.0338
c1 = 0.00448	0.0192	0.0215	0.0244	0.0279	0.0315	0.0358
c1 = 0.004998	0.0199	0.0224	0.0256	0.0291	0.033	0.0374
c1 = 0.005625	0.0206	0.0236	0.0269	0.0305	0.0347	0.0394

CC(C)C[C@H](NC(=O)CN)C(=O)O [glycyl-L-leucine] + O
[2]
Conditions	mass density [kg/m3]
m1 = 0.03301	1000.8
m1 = 0.04936	1001.65
m1 = 0.05894	1002.14
m1 = 0.06889	1002.67
m1 = 0.07838	1003.17
m1 = 0.08821	1003.69
m1 = 0.09745	1004.12

CC(C)[C@H](NC(=O)CN)C(=O)O [glycyl-L-valine] + O
[2]
Conditions	mass density [kg/m3]
m1 = 0.04051	1001.29
m1 = 0.08097	1003.45
m1 = 0.1203	1005.55
m1 = 0.1403	1006.63
m1 = 0.1594	1007.68
m1 = 0.1799	1008.79
m1 = 0.1995	1009.84

NCC(=O)NCC(=O)O [glycylglycine] + O
[2]
Conditions	mass density [kg/m3]
m1 = 0.06148	1002.65
m1 = 0.09135	1004.36
m1 = 0.1538	1007.96
m1 = 0.1823	1009.6
m1 = 0.2128	1011.36
m1 = 0.2534	1013.73
m1 = 0.3028	1016.61
